According to US11667601B2, “Calcium BOPTA complex” (BRACCO IMAGING S.P.A., priority 2019, dated 2023):

Assay: Solubility in water of the isolated solid form
Type: physicochemical
Settings: solid form obtained by the ethanol precipitation process

In the case of “(4RS)-[4-carboxy-5,8,11-tris(carboxymethyl)-1-phenyl-2-oxa-5,8,11-triazatridecan-13-oato(5-)] calciate(3-) trisodium [Ca-BOPTA trisodium salt]”, the “solubility of the solid form” value is reported as “soluble in water”.
